“Also recorded” adds a separate entry of the source.
Tests used:
[1] = tested on: malignant melanoma and advanced malignancies; details: cited from earlier work
MC38 = MC38 tumors treated intratumorally with TPI-1 and T cell activating agents; assay type: in vivo, C57Bl/6 mice
Protocol: Inhibition of SHP-1 was tested in vivo for tumor therapies. […] Tumor growth was measured over time until the tumors reached 2.0 cm in diameters. […] Anti-PD-1 antibody was 205[…] 50 μg by intratumoral injection every 3 days. Anti-CD3 antibody and anti-CD28 antibody were each 205[…] 50 μg by intratumoral injection in a single dose.

4T1 breast cancer = assay type: in vivo; details: lotion twice a day; anti-PD-1 100 μg i.p. every three days; all groups prophylactic anti-TNFα mAb
Protocol: Efficacy of topical treatments against tumor growth and/or progression was tested using murine models of cutaneous/subcutaneous breast cancer. […] Palpable tumors were formed in 10-15 days and were traced by bioluminescence imaging. Tumor sizes were measured manually, and the volume was calculated by the equation=[length (mm)×width (mm)×width (mm)]/2. Once the total tumor volume reached ≥200 mm^3, treatments were started.
Treatment groups included: (i) Control treatment (ctl.), wherein mice received topical non-drug lotion (vehicle) only; (ii) αPD-1 treatment, wherein mice received topical non-drug lotion (vehicle) treatment along with 100 μg of anti-PD-1 monoclonal antibody once every three days through intraperitoneal injection; (iii) Topical treatment with TLR agonists only (i.e. Condition A), wherein mice received aTLR (Resiquimod (R848) and polyI:C) prepared in Johnson's lotion, each at 100 μg/ml in a final volume of 100-200 μL lotion: (iv) Topical treatment with SHP-1 inhibitors only (i.e. Condition B), wherein mice received deuterated TPI-1 (dTPI-1) at 100 μg/ml in a final volume of 100-200 μL lotion; (v) Topical treatment with Conditions A+B only in a final volume of 100-200 μL lotion; and (vi) Topical treatment with Conditions A+B in a final volume of 100-200 μL lotion and systemic αPD-1 treatment. […]

O.O.O.O.O.O.O.O.O.O=C([O-])[C@@H]1[O][Sb]2([O-])([O][Sb]34([OH])[O][C@H]([C@H](O)CO)[C@H]([O]3)[C@H](C(=O)[O-])[O]4)[O][C@H]([C@H](O)CO)[C@@H]1[O]2.[Na+].[Na+].[Na+] [SSG, sodium stibogluconate]
most common toxic side-effects, frequency ([1]; thrombocytopenia, elevated serum lipase, fatigue, fever, chills, anemia, hypokalemia, pancreatitis, skin rash): up to 68 % of patients | effect against tumor development ([1]; with interferons, followed or not by chemotherapy): no effect was seen against tumor development

O=C1C=CC(=O)C(c2cc(Cl)ccc2Cl)=C1 [TPI-1, 2-(2,5-dichlorophenyl)benzoquinone]
effect of adding TPI-1 to αPD-1, IL-2, anti-CD3/CD28 or αPD-1+IL-2 (MC38; TPI-1 1 mg/kg every 2 days, 1 mg/kg): enabled the intratumoral injection of αPD-1, IL-2, or anti-CD3/CD28 to achieve strong anti-tumor effects; also recorded: instantly overcame treatment resistance | effect on established tumors, such as MC38, KPC, or LLC (MC38; agent alone): only minor effects | MC38 tumor growth / resistance (MC38; intratumoral, agent without SHP-1 inhibitor, or TPI-1 alone (1 mg/kg every 2 days)): did not attenuate tumor growth; also recorded: did not stop tumor progression

[2H]C1=C([2H])C(=O)C(c2c([2H])c(Cl)c([2H])c([2H])c2Cl)=C([2H])C1=O [dTPI-1]
4T1 tumor growth / progression (4T1 breast cancer): only slightly delayed tumor progression

From patent US20260273047A1, “COMPOSITIONS AND METHODS FOR AMELIORATING ADVERSE EFFECTS OF THERAPIES” (MDX Management LLC, priority 2023, published 2026)
